From patent US10620225B2, “Detection of polymyxins” (Randox Laboratories Limited, priority 2014, dated 2020)

Experiments:
Format in all cases: binding, sheep
[1] = system: Antibody RS2790; test: Competitive biochip immunoassay with Polymyxin B-KLH derived antibody RS2790 and Colistin-HRP tracer
Method: (§1) The process of developing an immunoassay is well known to the person skilled in the art. Briefly, for a competitive immunoassay in which the target analyte is a non-immunogenic molecule such as a hapten, a general immunoassay development process outlined. Following antibody production, a detecting agent is added to a sample containing the target analyte and the raised antibodies, and the detecting agent and analyte compete for binding to the antibodies. The process may comprise fixing said serum antibodies to a solid state device such as a polystyrene support or a ceramic chip. The antibodies can be polyclonal or monoclonal using standard techniques, but the current invention makes use of polyclonal antibodies. The signal emitted in the immunoassay is proportionate to the quantity of detecting agent bound to the antibodies which in turn is inversely proportionate to the analyte concentration. The signal can be detected or quantified by comparison with a calibrator.
(§2) 175 μl of assay diluent, then 25 μl of Polymyxin diluted in calibrator base was added to the appropriate wells. Biochips spotted with antibody of the invention were incubated for 30 min at 25° C. in a thermo-shaker at 370 rpm. 100 μl Tracer of the invention was added to the appropriate wells. Biochips were incubated for 60 min at 25° C. in a thermo-shaker at 370 rpm. Biochips were washed with TBST (2 quick washes followed by 4 washes at 2 min intervals). Biochips were developed with 250 μl signal: peroxide (1:1) for 2 min in the dark. Biochips were imaged on the Randox Investigator (2×60 sec images). All biochips were manually processed.

[2] = system: Polymyxin B derived antibody; test: Competitive biochip immunoassay, standard curves with Polymyxin B derived antibody and Colistin-based tracer; details: for CR (percentage cross-reactivity) / IC50 (standard concentration which produces 50% inhibition of maximal signal): Polymyxin B derived antibody, Colistin-based tracer
Method: as §1, §2

[3] = system: Antibody RS2801; test: Competitive biochip immunoassay with Polymyxin B-KLH derived antibody RS2801 and Colistin-HRP tracer
Method: as §1, §2

[4] = system: Antibody RS2830; test: Competitive biochip immunoassay with Polymyxin B-KLH derived antibody RS2830 and Colistin-HRP tracer
Method: as §1, §2

[5] = antibody 0.1 mg/ml, Colistin-HRP tracer dilution 1/50K
[6] = antibody 0.1 mg/ml, Colistin-HRP tracer dilution 1/100K
[7] = antibody 0.1 mg/ml, tracer dilution 1/50K
[8] = antibody 0.1 mg/ml, tracer dilution 1/100K
[9] = antibody 0.75 mg/ml, Colistin-HRP tracer dilution 1/50K
[10] = antibody 0.75 mg/ml, Colistin-HRP tracer dilution 1/100K
[11] = antibody 0.75 mg/ml, tracer dilution 1/50K
[12] = antibody 0.75 mg/ml, tracer dilution 1/100K
[13] = antibody 0.1 mg/ml, Colistin-HRP tracer dilution 1/500K
[14] = antibody 0.1 mg/ml, Colistin-HRP tracer dilution 1/1000K
[15] = antibody 0.1 mg/ml, tracer dilution 1/500K
[16] = antibody 0.1 mg/ml, tracer dilution 1/1000K
[17] = antibody 0.75 mg/ml, Colistin-HRP tracer dilution 1/500K
[18] = antibody 0.75 mg/ml, Colistin-HRP tracer dilution 1/1000K
[19] = antibody 0.75 mg/ml, tracer dilution 1/500K
[20] = antibody 0.75 mg/ml, tracer dilution 1/1000K

Row | Relative Binding (IC50) [1, 7] | Relative Binding (IC50) [1, 8] | Relative Binding (IC50) [1, 11] | Relative Binding (IC50) [1, 12] | IC50 (standard concentration which produces 50% inhibition of maximal signal) [2] | Relative Binding (IC50) [3, 15] | Relative Binding (IC50) [3, 16] | Relative Binding (IC50) [3, 19] | Relative Binding (IC50) [3, 20] | Substance | Relative % Cross-reactivity [1, 5] | Relative % Cross-reactivity [1, 6] | Relative % Cross-reactivity [1, 9] | Relative % Cross-reactivity [1, 10] | CR (percentage cross-reactivity) [2] | Relative % Cross-reactivity [3, 13] | Relative % Cross-reactivity [3, 14] | Relative % Cross-reactivity [3, 17] | Relative % Cross-reactivity [3, 18] | Relative % Cross-reactivity [4, 13] | Relative % Cross-reactivity [4, 14] | other results
1 | 0.14 ng/mL | 0.37 ng/mL | 0.14 ng/mL | 0.59 ng/mL | 0.931 ng/mL | 0.09 ng/mL | 0.12 ng/mL | 0.16 ng/mL | 0.13 ng/mL | Polymyxin B | 100% | 100% | 100% | 100% | (CR = 100%) | 100% | 100% | 100% | 100% | 100% | 100% | B/Bo ([2]; standard conc 0.078 ng/ml): 86%; B/Bo ([2]; standard conc 0.156 ng/ml): 78%; B/Bo ([2]; standard conc 0.313 ng/ml): 64%; B/Bo ([2]; standard conc 0.625 ng/ml): 56%; B/Bo ([2]; standard conc 1.250 ng/ml): 51%; B/Bo ([2]; standard conc 2.500 ng/ml): 38%; B/Bo ([2]; standard conc 5.000 ng/ml): 27%; B/Bo ([2]; standard conc 10.000 ng/ml): 16%; Relative Binding (IC50) [4, 15]: 0.15 ng/mL; Relative Binding (IC50) [4, 16]: 0.17 ng/mL; Relative % Cross-reactivity [4, 17]: 100%; Relative % Cross-reactivity [4, 18]: 100%; Relative Binding (IC50) [4, 19]: 0.17 ng/mL; Relative Binding (IC50) [4, 20]: 0.22 ng/mL
2 | 3.02 ng/mL | 1.60 ng/mL | 1.72 ng/mL | 1.01 ng/mL | 1.191 ng/mL | 0.47 ng/mL | 0.78 ng/mL | 0.24 ng/mL | 0.22 ng/mL | Colistin | 5% | 23% | 8% | 59% | (CR = 80%) | 20% | 15% | 67% | 62% | 6% | 5% | B/Bo ([2]; standard conc 0.391 ng/ml): 71%; B/Bo ([2]; standard conc 0.781 ng/ml): 58%; B/Bo ([2]; standard conc 1.563 ng/ml): 44%; B/Bo ([2]; standard conc 3.125 ng/ml): 33%; B/Bo ([2]; standard conc 6.250 ng/ml): 17%; B/Bo ([2]; standard conc 12.500 ng/ml): 11%; B/Bo ([2]; standard conc 25.000 ng/ml): 9%; B/Bo ([2]; standard conc 50.000 ng/ml): 6%; Relative Binding (IC50) [4, 15]: 2.54 ng/mL; Relative Binding (IC50) [4, 16]: 3.62 ng/mL; Relative % Cross-reactivity [4, 17]: 8%; Relative % Cross-reactivity [4, 18]: 9%; Relative Binding (IC50) [4, 19]: 2.16 ng/mL; Relative Binding (IC50) [4, 20]: 2.47 ng/mL
